The values that follow come from BindingDB's records for doi:10.1021/jm801395v (Universita Di Siena, 2009).

Assay in all cases: Reverse Transcriptase Assay
Assay [1] concerns the target T1, Gag-Pol polyprotein [588-1027,Y769I]/[588-1147,Y769I] (Human immunodeficiency virus 1, UniProt P04585, Y769I).
T1 construct: 588-1027; 588-1147
The conditions noted are these: pH 7.5; 37 °C. On the procedure:
(§1) The inhibition of the RNA-dependent DNA polymerase activity of the HIV-1 reverse transcriptase enzyme was measured using a primer extension assay. The substrate-incorporated radioactivity was quantitated by scintillation counting.

Assay [2] concerns the target T2, Gag-Pol polyprotein [588-1027] (Human immunodeficiency virus type 1 group M subtype B (isolate HXB2), UniProt P04585).
T2 construct: 588-1027
Conditions: pH 7.5; 37 °C. The procedure:
as §1

Assay [3] deals with T3, Gag-Pol polyprotein [588-1027,Y776L]/[588-1147,Y776L] (Human immunodeficiency virus 1, UniProt P04585, Y776L).
T3 construct: 588-1027; 588-1147
On the procedure: as §1

A value given as a limit tells only on which side of the number the result lay.

One may read the Ki as the equilibrium dissociation constant of an inhibitor or competing ligand from its target. Higher therefore signals lower affinity.

With `CCC1(c2ccc(COc3cccc(Cl)c3)cc2)Oc2cccnc2-n2cccc2C1=O` (stereo not given) [8-[4-(3-chlorophenoxymethyl)phenyl]-8-ethyl-9-oxa-2,14-diazatricyclo[8.4.0.0^{2,6}]tetradeca-1(14),3,5,10,12-pentaen-7-one], in assay [1], the Ki is less than 10 µM.
Consider `CCC1(c2ccc(COc3cccc(Cl)c3)cc2)Oc2ccccc2-n2cccc2C1=O` (stereo not given) [8-[4-(3-chlorophenoxymethyl)phenyl]-8-ethyl-9-oxa-2-azatricyclo[8.4.0.0^{2,6}]tetradeca-1(14),3,5,10,12-pentaen-7-one], for which the Ki in assay [1] is less than 10 µM; in assay [2] it was 0.1 µM.
For the compound `CCC1(c2ccc(COc3ccccc3)cc2)Oc2cccnc2-n2cccc2C1=O` (stereo not given) [8-ethyl-8-[4-(phenoxymethyl)phenyl]-9-oxa-2,14-diazatricyclo[8.4.0.0^{2,6}]tetradeca-1(14),3,5,10,12-pentaen-7-one], the Ki in assay [1] and in assay [3] was less than 10 µM in each case.
